Results taken from patent publication US10561638B2, “Methods for treating dependence” (Biotie Therapies, Inc., priority 2007, dated 2020).

Tests used:
[1] = target: Ca2+/calmodulin protein kinase II; experiment: Enzyme selectivity assay; type: biochemical
Experimental: (§1) The activity of nepicastat at twelve selected enzymes and receptors was determined using established assays. Binding data were analyzed by iterative curve-fitting to a four parameter logistic equation. Ki values were calculated from IC50 values using the Cheng-Prusoff equation. Enzyme inhibitory activity was expressed as IC50 (concentration required to produce 50% inhibition of enzyme activity).
(§2) The activity of nepicastat at eleven different enzymes was determined using established assays. The affinity of nepicastat for thirteen selected receptors was determined by radioligand binding assays using standard filtration techniques and membrane preparations. Binding data were analyzed by iterative curve fitting to a four parameter logistic equation. Ki values were calculated using the Cheng-Prusoff equation.

HMG-CoA reductase = HMG-CoA reductase (Homo sapiens, UniProt P04035); experiment: Enzyme selectivity assay; type: biochemical
HMG-CoA reductase, sequence (P04035 whole entry, species assumed): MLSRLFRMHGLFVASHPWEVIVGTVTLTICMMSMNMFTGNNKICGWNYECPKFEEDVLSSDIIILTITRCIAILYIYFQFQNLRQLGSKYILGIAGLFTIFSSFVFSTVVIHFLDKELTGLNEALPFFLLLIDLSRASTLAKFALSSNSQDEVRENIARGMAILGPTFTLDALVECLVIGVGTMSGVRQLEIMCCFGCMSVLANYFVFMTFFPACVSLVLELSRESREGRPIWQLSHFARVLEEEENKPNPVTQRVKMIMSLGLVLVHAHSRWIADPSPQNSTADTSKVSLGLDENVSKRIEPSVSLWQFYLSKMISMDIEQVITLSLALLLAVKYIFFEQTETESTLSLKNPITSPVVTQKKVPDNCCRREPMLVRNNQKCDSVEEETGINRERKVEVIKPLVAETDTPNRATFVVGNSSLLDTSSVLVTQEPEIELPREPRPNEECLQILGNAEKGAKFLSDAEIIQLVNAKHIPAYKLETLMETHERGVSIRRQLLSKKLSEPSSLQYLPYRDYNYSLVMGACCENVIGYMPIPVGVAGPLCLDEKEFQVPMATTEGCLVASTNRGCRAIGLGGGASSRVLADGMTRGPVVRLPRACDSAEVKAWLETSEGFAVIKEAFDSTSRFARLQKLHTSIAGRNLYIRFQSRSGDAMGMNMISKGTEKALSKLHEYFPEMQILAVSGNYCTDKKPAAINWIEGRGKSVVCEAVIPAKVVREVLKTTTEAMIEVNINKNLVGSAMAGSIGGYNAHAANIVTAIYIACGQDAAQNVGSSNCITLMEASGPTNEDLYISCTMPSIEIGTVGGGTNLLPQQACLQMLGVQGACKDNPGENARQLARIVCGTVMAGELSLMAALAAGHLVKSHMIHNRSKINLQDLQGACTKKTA
Experimental: as §1, §2

acetyl CoA synthetase = experiment: Enzyme selectivity assay; type: biochemical
Experimental: as §1, §2

[2] = target: acyl CoA-cholesterol acyl transferase; experiment: Enzyme selectivity assay; type: biochemical
Experimental: as §1, §2

cyclooxygenase-I = cyclooxygenase-I (Homo sapiens, UniProt P23219); experiment: Enzyme selectivity assay; type: biochemical
cyclooxygenase-I, sequence (P23219 24-599): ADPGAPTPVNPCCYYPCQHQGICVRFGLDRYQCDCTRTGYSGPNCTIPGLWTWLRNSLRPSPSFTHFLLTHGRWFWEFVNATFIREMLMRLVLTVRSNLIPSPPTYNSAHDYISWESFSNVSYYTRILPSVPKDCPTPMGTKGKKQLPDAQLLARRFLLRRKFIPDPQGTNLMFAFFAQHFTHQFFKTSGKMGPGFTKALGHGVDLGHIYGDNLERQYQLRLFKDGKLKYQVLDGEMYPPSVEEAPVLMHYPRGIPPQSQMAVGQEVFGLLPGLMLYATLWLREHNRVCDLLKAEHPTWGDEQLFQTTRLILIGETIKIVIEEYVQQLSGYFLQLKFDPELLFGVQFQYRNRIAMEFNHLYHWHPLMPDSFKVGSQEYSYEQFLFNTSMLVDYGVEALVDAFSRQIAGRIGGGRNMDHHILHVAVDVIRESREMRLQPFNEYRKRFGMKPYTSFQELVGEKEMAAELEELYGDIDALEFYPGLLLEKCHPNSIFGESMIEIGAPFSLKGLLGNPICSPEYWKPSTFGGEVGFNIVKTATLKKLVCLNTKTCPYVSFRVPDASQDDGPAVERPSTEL
Experimental: as §1, §2

neutral endopeptidase = neutral endopeptidase (Homo sapiens, UniProt P08473); experiment: Enzyme selectivity assay; type: biochemical
neutral endopeptidase, sequence (P08473 whole entry, species assumed): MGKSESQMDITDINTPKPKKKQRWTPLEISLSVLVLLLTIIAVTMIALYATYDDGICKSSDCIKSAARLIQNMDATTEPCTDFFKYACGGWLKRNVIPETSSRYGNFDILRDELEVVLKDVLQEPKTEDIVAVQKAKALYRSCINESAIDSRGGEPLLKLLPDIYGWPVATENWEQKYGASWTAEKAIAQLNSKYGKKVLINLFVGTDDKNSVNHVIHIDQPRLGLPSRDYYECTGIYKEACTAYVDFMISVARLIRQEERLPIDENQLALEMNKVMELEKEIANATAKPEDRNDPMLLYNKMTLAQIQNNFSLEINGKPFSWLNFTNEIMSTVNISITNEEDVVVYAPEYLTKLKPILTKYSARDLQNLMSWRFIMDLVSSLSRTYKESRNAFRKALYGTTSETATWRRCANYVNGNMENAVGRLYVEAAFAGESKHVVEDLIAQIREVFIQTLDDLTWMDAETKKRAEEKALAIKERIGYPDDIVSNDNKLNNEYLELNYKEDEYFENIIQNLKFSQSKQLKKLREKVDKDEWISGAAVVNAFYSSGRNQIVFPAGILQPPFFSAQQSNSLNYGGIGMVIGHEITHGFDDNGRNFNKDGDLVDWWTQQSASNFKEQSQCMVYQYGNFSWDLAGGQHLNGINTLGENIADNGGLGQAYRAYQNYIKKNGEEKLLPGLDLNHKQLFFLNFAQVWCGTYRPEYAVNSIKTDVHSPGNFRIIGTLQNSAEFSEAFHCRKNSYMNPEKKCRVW
Experimental: as §1, §2

nitric oxide synthase = experiment: Enzyme selectivity assay; type: biochemical
Experimental: as §1, §2

phosphodiesterase III = experiment: Enzyme selectivity assay; type: biochemical
Experimental: as §1, §2

phospholipase A2 = experiment: Enzyme selectivity assay; type: biochemical
Experimental: as §1, §2

tyrosine hydroxylase = tyrosine hydroxylase (Homo sapiens, UniProt P07101); experiment: Enzyme selectivity assay; type: biochemical
tyrosine hydroxylase, sequence (P07101 whole entry): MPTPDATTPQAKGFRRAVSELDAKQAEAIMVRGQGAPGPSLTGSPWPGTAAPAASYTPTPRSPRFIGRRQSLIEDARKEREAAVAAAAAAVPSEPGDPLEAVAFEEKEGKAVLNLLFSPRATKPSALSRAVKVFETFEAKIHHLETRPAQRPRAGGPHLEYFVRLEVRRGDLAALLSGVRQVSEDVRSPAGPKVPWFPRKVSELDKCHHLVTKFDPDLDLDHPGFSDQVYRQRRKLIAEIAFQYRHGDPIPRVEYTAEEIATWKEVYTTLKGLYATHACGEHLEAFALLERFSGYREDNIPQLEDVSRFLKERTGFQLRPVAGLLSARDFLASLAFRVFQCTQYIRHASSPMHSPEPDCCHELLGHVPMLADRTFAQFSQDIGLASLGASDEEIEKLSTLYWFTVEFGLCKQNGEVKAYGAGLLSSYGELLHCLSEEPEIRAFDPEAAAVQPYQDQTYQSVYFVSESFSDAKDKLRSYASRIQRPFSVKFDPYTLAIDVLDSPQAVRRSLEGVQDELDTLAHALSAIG
Experimental: as §1, §2

plasma renin activity = experiment: Plasma renin activity in SHRs; type: in vivo, spontaneously hypertensive rats; details: 30 and 100 mg/kg/d p.o. for 5 days
Text: The potency relationships in the left ventricle and mesenteric artery resulting from these in vivo studies strongly parallel those obtained from in vitro studies using purified DBH (see above). […] It was therefore of interest to assess whether decreasing norepinephrine levels with nepicastat would result in a decrease in plasma renin activity.

[3] = system: normotensive Wistar-Kyoto rats; experiment: Blood pressure in conscious, restrained Wistar-Kyoto rats; type: in vivo; details: 10 mg/kg
Text: To summarize together, nepicastat causes a decrease in blood pressure in both SHRs and normotensive rats, though the antihypertensive effect is more pronounced in SHRs.

[4] = Plasma and tissue compound levels in dogs; type: in vivo, beagle dogs
Experimental: Male Beagle dogs (Marshall farms, North Rose, N.Y.) weighing between 9-16 kg were used in the study. The animals were allowed water ad libitum and given food once daily at ˜10.00 AM. Animals were randomly assigned to one of the following treatment groups (n=8/group): placebo (empty capsule), or nepicastat at 2 mg/kg b.i.d (4 mg/kg/day). Each animal received 2 doses daily, morning and afternoon (8-10 hours apart). Daily blood samples (10 ml) were drawn 6 h after the AM dose for measurement of plasma levels of nepicastat and catecholamines. The blood was collected in tubes containing heparin and glutathione and centrifuged at −4° C. within 1 h of collection. The plasma was separated and divided into two samples, one for the measurement of plasma catecholamines and the other for analysis of nepicastat.
Plasma norepinephrine (NE), dopamine (DA) and epinephrine (EPI) were analyzed by HPLC using electrochemical detection. Plasma concentration of nepicastat was determined by HPLC using electrochemical detection.
Thirty-two male beagle dogs, weighing 10-12 kg, were randomly assigned to one of the following 4 treatment groups (n=8 per group): nepicastat at 0 mg/kg/day (placebo), 10 mg/kg/day (5 mg/kg b.i.d.), 30 mg/kg (15 mg/kg b.i.d.), or 60 mg/kg/day (30 mg/kg b.i.d.). Dog numbers 1-16 were assigned as dose group A and dog numbers 17-32 as dose group B. The terminal surgery for tissue harvest was performed over 2 days with 16 animals studied per day. Two or 3 days before the first compound administration each dog was weighed and skin regions overlying both cephalic, saphenous and jugular veins were shaved. Dosing consisted of oral administration of one capsule with the second given 8-10 hr later. Dogs were dosed as scheduled on days 1-3. On day 4, prior to the AM dose, 3 ml of blood were obtained from a jugular vein for determination of baseline plasma compound levels. The dog was then administered the AM dose, and at 1, 2, 4 and 8 hr following the dose additional 3 ml blood samples were collected for determination of plasma compound levels. […]

[5] = system: plasma dopamine/norepinephrine ratio, urinary dopamine; experiment: Plasma and urinary catecholamines in normal volunteers; type: in vivo, human
Experimental: Nepicastat reduces the conversion of dopamine to norepinephrine. Basic tests for nepicastat activity measure the levels of plasma or urinary dopamine or the ratio of dopamine to norepinephrine. Nepicastat treatment can increase plasma or urinary levels of dopamine or increase the dopamine/norepinephrine ratio in plasma or urine.
Shown in FIG. 5, are the levels in urinary dopamine levels in normal volunteers after 24 hour treatment with nepicastat.
Urinary dopamine levels increased after 10 days of dosing with both 40 mg and 200 mg of nepicastat.

SMILES: Cl.NCc1c[nH]c(=S)n1[C@H]1CCc2c(F)cc(F)cc2C1 [nepicastat, (S)-5-Aminomethyl-1-(5,7-difluoro-1,2,3,4-tetrahydronaphth-2-yl)-2,3-dihydro-2-thioxo-1H-imidazole hydrochloride]
- IC50 [1]: > 10 µM
- IC50 (HMG-CoA reductase): > 10 µM
- IC50 (acetyl CoA synthetase): > 10 µM
- IC50 [2]: > 10 µM
- IC50 (cyclooxygenase-I): > 10 µM
- IC50 (neutral endopeptidase): > 10 µM
- IC50 (nitric oxide synthase): > 10 µM
- IC50 (phosphodiesterase III): > 10 µM
- IC50 (phospholipase A2): > 10 µM
- IC50 (tyrosine hydroxylase): > 10 µM
- plasma renin activity (plasma renin activity): did not alter plasma renin activity
- decrease in blood pressure 4 hours after dosing [3]: −13 mmHg
- time of peak plasma levels of the drug ([4]; 2 mg/kg bid, sampled 6 h after AM dose): 2 days post-dose
- dose proportionality of nepicastat concentration in plasma and tissue ([4]; 10, 30, 60 mg/kg/day, Day 4 and Day 5): dose-proportional
- levels of nepicastat in tissues vs plasma ([4]; Day 5, all tissues examined): higher than those in plasma
- urinary dopamine levels ([5]; 40 mg and 200 mg, after 10 days of dosing): increased
- mean supine plasma dopamine/norepinephrine ratio vs placebo ([5]; 200 mg): significant increase
